In brackets after ≈: the same amount, converted by molar mass. Activity calls are given as the source filed them. The rule behind the calls is not given here.
Tests used:
[1] = system: Plasmodium gallinaceum; assay: Antimalarial activity against sporozoite-induced Plasmodium gallinaceum infected in white leghorn chicken assessed as disease cure from parasite infection at 10 mg/kg, sc administered 72 hrs after infection; type: functional, organism-based; set-up: dose 10 mg/kg
[2] = system: Staphylococcus aureus; assay: Antibacterial activity against drug-resistant Staphylococcus aureus S18713 by gradient plate test; type: functional
[3] = system: Plasmodium berghei; assay: Antimalarial activity against trophozoite-induced Plasmodium berghei infected in mouse assessed as daily dose required to suppression of 90% parasite infection administered with diet for 6 days; type: functional
[4] = system: Plasmodium gallinaceum; assay: Antimalarial activity against sporozoite-induced Plasmodium gallinaceum infected in white leghorn chicken assessed as disease cure from parasite infection at 80 mg/kg, sc administered 72 hrs after infection; type: functional, organism-based; set-up: dose 80 mg/kg
[5] = system: Plasmodium gallinaceum; assay: Antimalarial activity against trophozoite-induced Plasmodium gallinaceum infected in white leghorn chicken assessed as increase in mean survival days of host at 40 mg/kg, sc administered 72 hrs after infection relative to control; type: functional; conditions: route subcutaneous
[6] = system: Plasmodium berghei; assay: Antimalarial activity against Plasmodium berghei infected in mouse assessed as disease cure from parasite infection at 10 mg/kg, sc administered 72 hrs after infection; type: functional, organism-based; set-up: dose 10 mg/kg
[7] = system: Plasmodium berghei; assay: Antimalarial activity against Plasmodium berghei infected in mouse assessed as increase in mean survival days of host at 10 mg/kg, sc administered 72 hrs after infection relative to control; type: functional; conditions: route subcutaneous
[8] = system: Plasmodium gallinaceum; assay: Antimalarial activity against trophozoite-induced Plasmodium gallinaceum infected in white leghorn chicken assessed as increase in mean survival days of host at 10 mg/kg, sc administered 72 hrs after infection relative to control; type: functional; conditions: route subcutaneous
[9] = system: Plasmodium berghei; assay: Ratio of quinine hydrochloride SD90 to compound SD90 for trophozoite-induced Plasmodium berghei infected in mouse assessed as daily dose required to suppression of 90% parasite infection administered with diet for 6 days; type: functional
[10] = system: Plasmodium gallinaceum; assay: Antimalarial activity against trophozoite-induced Plasmodium gallinaceum infected in white leghorn chicken assessed as disease cure from parasite infection at 80 mg/kg, sc administered 72 hrs after infection; type: functional, organism-based; set-up: dose 80 mg/kg
[11] = system: Plasmodium gallinaceum; assay: Antimalarial activity against trophozoite-induced Plasmodium gallinaceum infected in white leghorn chicken assessed as increase in mean survival days of host at 5 mg/kg, sc administered 72 hrs after infection relative to control; type: functional; conditions: route subcutaneous
[12] = system: Plasmodium gallinaceum; assay: Antimalarial activity against trophozoite-induced Plasmodium gallinaceum infected in white leghorn chicken assessed as increase in mean survival days of host at 80 mg/kg, sc administered 72 hrs after infection relative to control; type: functional; conditions: route subcutaneous
[13] = system: Enterococcus faecalis; assay: Antibacterial activity against Streptococcus faecalis MGH-2 by gradient plate test; type: functional
[14] = system: Plasmodium berghei; assay: Antimalarial activity against Plasmodium berghei infected in mouse assessed as disease cure from parasite infection at 40 mg/kg, sc administered 72 hrs after infection; type: functional, organism-based; set-up: dose 40 mg/kg
[15] = system: Plasmodium berghei; assay: Antimalarial activity against Plasmodium berghei infected in mouse assessed as disease cure from parasite infection at 20 mg/kg, sc administered 72 hrs after infection; type: functional, organism-based; set-up: dose 20 mg/kg
[16] = system: Plasmodium berghei; assay: Antimalarial activity against Plasmodium berghei infected in mouse assessed as increase in mean survival days of host at 5 mg/kg, sc administered 72 hrs after infection relative to control; type: functional; conditions: route subcutaneous
[17] = system: Plasmodium gallinaceum; assay: Antimalarial activity against trophozoite-induced Plasmodium gallinaceum infected in white leghorn chicken assessed as increase in mean survival days of host at 0.63 mg/kg, sc administered 72 hrs after infection relative to control; type: functional; conditions: route subcutaneous
[18] = system: Plasmodium gallinaceum; assay: Antimalarial activity against sporozoite-induced Plasmodium gallinaceum infected in white leghorn chicken assessed as disease cure from parasite infection at 160 mg/kg, sc administered 72 hrs after infection; type: functional, organism-based; set-up: dose 160 mg/kg
[19] = system: Escherichia coli; assay: Antibacterial activity against Escherichia coli Vogel by gradient plate test; type: functional
[20] = system: Plasmodium berghei; assay: Antimalarial activity against Plasmodium berghei infected in mouse assessed as increase in mean survival days of host at 2.5 mg/kg, sc administered 72 hrs after infection relative to control; type: functional; conditions: route subcutaneous
[21] = system: Plasmodium gallinaceum; assay: Antimalarial activity against trophozoite-induced Plasmodium gallinaceum infected in white leghorn chicken assessed as increase in mean survival days of host at 2.5 mg/kg, sc administered 72 hrs after infection relative to control; type: functional; conditions: route subcutaneous
[22] = system: Plasmodium gallinaceum; assay: Antimalarial activity against sporozoite-induced Plasmodium gallinaceum infected in white leghorn chicken assessed as disease cure from parasite infection at 20 mg/kg, sc administered 72 hrs after infection; type: functional, organism-based; set-up: dose 20 mg/kg
[23] = system: Plasmodium gallinaceum; assay: Antimalarial activity against sporozoite-induced Plasmodium gallinaceum infected in white leghorn chicken assessed as increase in mean survival days of host at 10 mg/kg, sc administered 72 hrs after infection relative to control; type: functional; conditions: route subcutaneous
[24] = system: Plasmodium gallinaceum; assay: Antimalarial activity against trophozoite-induced Plasmodium gallinaceum infected in white leghorn chicken assessed as disease cure from parasite infection at 160 mg/kg, sc administered 72 hrs after infection; type: functional, organism-based; set-up: dose 160 mg/kg
[25] = system: Shigella sonnei; assay: Antibacterial activity against Shigella sonnei C-10 by gradient plate test; type: functional
[26] = system: Plasmodium berghei; assay: Antimalarial activity against Plasmodium berghei infected in mouse assessed as disease cure from parasite infection at 320 mg/kg, sc administered 72 hrs after infection; type: functional, organism-based; set-up: dose 320 mg/kg
[27] = system: Plasmodium berghei; assay: Antimalarial activity against Plasmodium berghei infected in mouse assessed as disease cure from parasite infection at 160 mg/kg, sc administered 72 hrs after infection; type: functional, organism-based; set-up: dose 160 mg/kg
[28] = system: Plasmodium berghei; assay: Antimalarial activity against Plasmodium berghei infected in mouse assessed as disease cure from parasite infection at 640 mg/kg, sc administered 72 hrs after infection; type: functional, organism-based; set-up: dose 640 mg/kg
[29] = system: Plasmodium berghei; assay: Antimalarial activity against Plasmodium berghei infected in mouse assessed as disease cure from parasite infection at 80 mg/kg, sc administered 72 hrs after infection; type: functional, organism-based; set-up: dose 80 mg/kg
[30] = system: Plasmodium gallinaceum; assay: Antimalarial activity against trophozoite-induced Plasmodium gallinaceum infected in white leghorn chicken assessed as increase in mean survival days of host at 1.25 mg/kg, sc administered 72 hrs after infection relative to control; type: functional; conditions: route subcutaneous
[31] = system: Plasmodium berghei; assay: Antimalarial activity against Plasmodium berghei infected in mouse assessed as increase in mean survival days of host at 40 mg/kg, sc administered 72 hrs after infection relative to control; type: functional; conditions: route subcutaneous
[32] = system: Plasmodium berghei; assay: Antimalarial activity against Plasmodium berghei infected in mouse assessed as increase in mean survival days of host at 20 mg/kg, sc administered 72 hrs after infection relative to control; type: functional; conditions: route subcutaneous
[33] = system: Staphylococcus aureus; assay: Antibacterial activity against Staphylococcus aureus UC-96 by gradient plate test; type: functional
[34] = system: Plasmodium gallinaceum; assay: Antimalarial activity against trophozoite-induced Plasmodium gallinaceum infected in white leghorn chicken assessed as increase in mean survival days of host at 20 mg/kg, sc administered 72 hrs after infection relative to control; type: functional; conditions: route subcutaneous
[35] = system: Pseudomonas aeruginosa; assay: Antibacterial activity against Pseudomonas aeruginosa 28 by gradient plate test; type: functional
[36] = system: Plasmodium berghei; assay: Antimalarial activity against Plasmodium berghei infected in mouse assessed as increase in mean survival days of host at 1.25 mg/kg, sc administered 72 hrs after infection relative to control; type: functional; conditions: route subcutaneous
[37] = system: Plasmodium gallinaceum; assay: Antimalarial activity against sporozoite-induced Plasmodium gallinaceum infected in white leghorn chicken assessed as disease cure from parasite infection at 40 mg/kg, sc administered 72 hrs after infection; type: functional, organism-based; set-up: dose 40 mg/kg
[38] = system: Plasmodium gallinaceum; assay: Antimalarial activity against trophozoite-induced Plasmodium gallinaceum infected in white leghorn chicken assessed as disease cure from parasite infection at 320 mg/kg, sc administered 72 hrs after infection; type: functional, organism-based; set-up: dose 320 mg/kg
[39] = system: Plasmodium gallinaceum; assay: Antimalarial activity against sporozoite-induced Plasmodium gallinaceum infected in white leghorn chicken assessed as disease cure from parasite infection at 320 mg/kg, sc administered 72 hrs after infection; type: functional, organism-based; set-up: dose 320 mg/kg
[40] = system: Plasmodium gallinaceum; assay: Antimalarial activity against trophozoite-induced Plasmodium gallinaceum infected in white leghorn chicken assessed as increase in mean survival days of host at 160 mg/kg, sc administered 72 hrs after infection relative to control; type: functional; conditions: route subcutaneous
[41] = system: Plasmodium falciparum; assay: Antimalarial activity against chloroquine-susceptible, pyrimethamine-resistant Plasmodium falciparum Malayan Camp infected in Aotus trivirgatus owl monkey model assessed as cure from parasite infection at 0.39 to 5 mg/kg, po qd for 7 days relative to control; type: functional; conditions: dose mg/kg 0.39-5
[42] = system: Plasmodium falciparum; assay: Antimalarial activity against chloroquine-susceptible, pyrimethamine-resistant Plasmodium falciparum Malayan Camp infected in Aotus trivirgatus owl monkey model assessed as cure from parasite infection at >2.5 mg/kg, po qd for 7 days relative to control; type: functional
[43] = system: Plasmodium falciparum; assay: Antimalarial activity against pyrimethamine-sensitive Plasmodium falciparum Vietnam Oak Knoll infected in Aotus trivirgatus owl monkey model assessed as cure from parasite infection at 0.098 to 1.56 mg/kg, po qd for 7 days relative to control; type: functional; conditions: dose mg/kg 0.098-1.56
[44] = system: Plasmodium falciparum; assay: Antimalarial activity against pyrimethamine-sensitive Plasmodium falciparum Vietnam Oak Knoll infected in Aotus trivirgatus owl monkey model assessed as cure from parasite infection at 0.6 mg/kg, po qd for 7 days relative to control; type: functional

In the case of Cc1ccc(Cl)cc1Sc1ccc2nc(N)nc(N)c2c1, the Activity [1] is reported as “Active”, the MIC [2] is reported as under 0.25 µg/mL and the SD90 [3] is reported as 0.43 mg/kg/day. For the same molecule, the Activity [4] was “Active”, the MST [5] was 7.8 days and the Activity [6] was “Active”. It also gave an MST [7] of 8.8 days, an MST [8] of 5.8 days and a Ratio [9] of 170. The Activity [10] was “Active”, the MST [11] was 3.6 days and the MST [12] was 18 days. For the same molecule, the MIC [13] was under 0.25 µg/mL, the Activity [14] was “Active” and the Activity [15] was “Active”. The MST [16] was 9.5 days, the MST [17] was 0 days and the Activity [18] was “Active”. It also gave an MIC [19] of under 0.25 µg/mL, an MST [20] of 4.1 days and an MST [21] of 1.4 days. The Activity [22] was “Active”, the MST [23] was 7 days and the Activity [24] was “Active”. For the same molecule, the MIC [25] was 1.5 µg/mL (≈ 4.73 µM), the Activity [26] was “Active” and the Activity [27] was “Active”. The Activity [28] was “Active”, the Activity [29] was “Active” and the MST [30] was 0 days. It also gave an MST [31] of 25.7 days, an MST [32] of 17.8 days and an MIC [33] of under 0.25 µg/mL. The MST [34] was 7.4 days, the MIC [35] was over 25 µg/mL and the MST [36] was 2.7 days. The Activity [37] was “Active”, the Activity [38] was “Active” and the Activity [39] was “Active”.

With Nc1nc(N)c2cc(Sc3cccc(C(F)(F)F)c3)ccc2n1 [WR-159412] the Activity [1] was “Active”, the Activity [4] was “Active” and the MST [40] was 15.4 days. For the same molecule, the Activity [41] was over 50%, the MST [7] was 9.1 days and the Activity [42] was over 50%. The Activity [43] was over 50%, the Activity [44] was over 50% and the Activity [14] was “Active”. The MST [16] was 8.7 days, the Activity [18] was “Active” and the MST [20] was 2.7 days. For the same molecule, the Activity [22] was “Active”, the MST [23] was 7.3 days and the Activity [26] was “Active”. The Activity [27] was “Active”, the Activity [28] was “Active” and the Activity [29] was “Active”. The MST [31] was 14.9 days, the MST [32] was 12.7 days and the MST [36] was 0.5 days. The Activity [37] was “Active” and the Activity [39] was “Active”.
